According to patent US8143276B2, “4-thio substituted quinoline and naphthyridine compounds” (XTL Biopharmaceuticals Ltd., priority 2007, dated 2012):

Key:
[1] = system: HCV Replicon; assay: HCV Replicon Luciferase Assay; type: cell-based, Hepatitis C virus; conditions: Hepatitis C virus; Huh-Luc-Neo cells, 48 h incubation, luciferase reporter; read-out: Replicon Inhibition*, Luciferase
Procedure: The identification of inhibitors of HCV replication and/or proliferation has been facilitated by the development of a cell-based system to study HCV replication. Inhibition of HCV replication may be performed using the HCV Replicon Assay developed in the laboratories of Bartenschlager (Lohman et al, Science 285, 110-113, 1999) and Rice (Blight et al, Science 290, 1972-1974, 2000). The assay is performed using the Huh-Luc-Neo cell line (Lohman et al, Science 285, 110-113, 1999). Huh-Luc-Neo cells are a human hepatoma cell line (Huh-7) stably expressing a bi-cistronic subgenomic replicon containing the HCV IRES in which the structural proteins of HCV have been deleted and replaced by a construct containing sequences coding for the firefly luciferase reporter gene, the neomycin selectable marker and the EMCV IRES to direct expression of a truncated HCV genome expressing the […] NS3, NS4A, NS4B, NS5A, and NS5B. HCV targets through which inhibitors could act to inhibit replication include the NS3 protease, the helicase/ATPase, NS5A, the NS5B-RNA dependent RNA polymerase, and the HCV IRES.
(§1) Expression of HCV IRES driven luciferase reporter activity and HCV RNA is measured to obtain indirect and direct measures of replication of HCV RNA respectively. Inhibitors of HCV replication and/or proliferation are determined by initially identifying molecules that inhibit expression of the HCV IRES driven luciferase reporter in this HCV Replicon Luciferase Assay. Cell viability assays and control cell based luciferase assays are then run on hits identified in the HCV Replicon Luciferase Assay to eliminate cytoxic compounds and non-specific compounds which act by inhibiting the luciferase enzyme.
(§2) Day 0, Cell Seeding and Compound Treatment: Huh-Luc-Neo Cells are seeded at 25,000/well in an opaque-walled 96 plate with Growth Medium (DMEM phenol red free+PS+2 mM glutamine; 100 μl/well). The compounds to be tested are added to the experimental wells (10 μl/well at 10× assay concentration) and the cells are then incubated (5% CO2, 37° C.) for 48 h.
Day 2, Reagent Preparation and Luciferase Assay: The Bright-Glo Luciferase Assay Buffer (Promega) is thawed and equilibrated to room temperature prior to use. The lyophilized Bright-Glo Luciferase Assay Substrate is equilibrated to room temperature prior to use. 10 ml of Bright-Glo Luciferase Assay Buffer is transferred to 1 vial of Bright-Glo Luciferase Assay Substrate bottle and mixed by gently with a Vortex. 100 μl of Bright-Glo Luciferase Assay reagent (Bright-Glo Luciferase Assay Buffer+Bright-Glo Luciferase Assay Substrate Mixture) is added to each well. The well contents are mixed for 5 min. on an orbital shaker at room temperature to induce cell lysis and the luminescence is then measured using a luminometer. The data is analyzed and IC50s are determined using GraphPad Prism 4 software. Hits validated in the Replicon Luciferase assay have IC50s<8.0 μM and show <30% inhibition of Cell Viability at a compound concentration of 100 μM (Cell Titer Glow Assay, cell viability assay conditions identical to HCV Replicon Luciferase Assay conditions).

[2] = CellTiter-Glo Cell Viability Assay; type: cell-based, human; conditions: human, Huh-Luc-Neo cells, read-out: Cytotoxicity*
Procedure: as §2, with “ul/well).” for “μl/well).”, “tested for inhibition of cell viability” for “tested”
(§3) Day 2, Reagent Preparation and Assay: The CellTiter-Glo Buffer is thawed and equilibrated to room temperature prior to use. The lyophilized CellTiter-Glo Substrate is equilibrated to room temperature prior to use. 10 ml of CellTiter-Glo Buffer is transferred to 1 vial of CellTiter-Glo Substrate and mixed by gently with a Vortex. 100 μl of CellTiter-Glo Assay reagent (CellTiter-Glo Buffer+CellTiter-Glo Substrate Mixture) is added to each well. The well contents are mixed for 5 min. on an orbital shaker at room temperature to induce cell lysis and the luminescence is then measured using a luminometer.

[3] = system: HCV RNA; assay: HCV Replicon RNA Assay (Taqman); type: cell-based, Hepatitis C virus; conditions: Hepatitis C virus; Huh-Luc-Neo cells, compound re-added at 24 h, HCV RNA by quantitative PCR; read-out: Replicon Inhibition*, Taqman
Procedure: as §1
as §2, with “C.).” for “C.) for 48 h.”
Day 1, Media Change and Compound Treatment: 24 hours after the initial compound treatment the cell culture media is aspirated from the wells and fresh Growth Medium is added (DMEM phenol red free+PS+2 mM glutamine; 100 μl/well). The compounds to be tested are then added to the appropriate experimental wells (10 μl/well at 10× assay concentration) and the cells are then incubated (5% CO2, 37° C.) for an additional 24 hrs.
Day 2, RNA Isolation and cDNA Synthesis: The cells are washed with 1× Phosphate Buffered Saline (PBS) once.
Day 3, Quantitative PCR Based Measurement of HCV RNA (Taqman Assay): Quantitative PCR analysis to measure HCV RNA expression from cDNA synthesized on Day 2 is performed using the ABI 9700 HT Sequence Detection System (Applied Biosystems) as previously described (Lohman et al, Science 285, 110-113, 1999). The data is analyzed and IC50s are determined using GraphPad Prism 4 software. Hits validated in the Replicon RNA Assay have IC50s<8.0 μM and show <30% inhibition of Cell Viability at a compound concentration of 50 μM (Cell Titer Glow Assay, cell viability assay conditions identical to HCV Replicon RNA Assay conditions).

[4] = system: Huh-Luc-Neo Cells; assay: CellTiter-Glo Cell Viability Assay; type: cell-based, human; conditions: 48 h, read-out: Cytotoxicity*
Procedure: as §2, with “ul/well).” for “μl/well).”, “tested for inhibition of cell viability” for “tested”
as §3

SMILES	IC50 [1]	IC50 at 48 h [2]	IC50 [3]	IC50 [4]
Cn1c(=O)cc(Sc2ccc(Br)cc2)c2ccccc21 [compound 001]	1 to 10 µM	> 100 µM	< 1 µM	–
Cn1c(=O)cc(Sc2ccc(Cl)cc2)c2ccccc21 [compound 002]	1 to 10 µM	> 100 µM	1 to 10 µM	–
Cn1c(=O)cc(Sc2ccc(F)cc2)c2ccccc21 [compound 003]	1 to 10 µM	> 100 µM	1 to 10 µM	–
Cn1c(=O)cc(Sc2c(Cl)cccc2Cl)c2ccccc21 [compound 004]	1 to 10 µM	> 100 µM	< 1 µM	–
Cn1c(=O)cc(Sc2ccccc2F)c2ccccc21 [compound 005]	1 to 10 µM	–	1 to 10 µM	10 to 100 µM
Cn1c(=O)cc(Sc2cc(Cl)ccc2Cl)c2ccccc21 [compound 006]	10 to 100 µM	> 100 µM	1 to 10 µM	–
Cn1c(=O)cc(Sc2cccc(F)c2)c2ccccc21 [compound 007]	1 to 10 µM	> 100 µM	1 to 10 µM	–
Cn1c(=O)cc(Sc2ccc(N)cc2)c2ccccc21 [compound 009]	< 1 µM	> 100 µM	< 1 µM	–
CCn1c(=O)cc(Sc2ccc(Br)cc2)c2ccccc21 [compound 010]	1 to 10 µM	> 100 µM	< 1 µM	–
Cn1c(=O)cc(Sc2ccc(Br)cc2)c2cc(Cl)ccc21 [compound 011]	1 to 10 µM	> 100 µM	1 to 10 µM	–
COc1ccc(Sc2cc(=O)n(C)c3ccccc23)cc1 [compound 012]	1 to 10 µM	> 100 µM	10 to 100 µM	–
Cn1c(=O)cc(Sc2ccc(C(C)(C)C)cc2)c2ccccc21 [compound 013]	1 to 10 µM	> 100 µM	< 1 µM	–
Cn1c(=O)cc(Sc2ccc(I)cc2)c2ccccc21 [compound 014]	1 to 10 µM	> 100 µM	< 1 µM	–
Cn1c(=O)cc(Sc2ccc(Cl)cc2)c2cc(F)ccc21 [compound 015]	1 to 10 µM	> 100 µM	1 to 10 µM	–
Cc1ccc(Sc2cc(=O)n(C)c3ccc(F)cc23)cc1 [compound 016]	1 to 10 µM	> 100 µM	1 to 10 µM	–
CC(=O)Nc1ccc(Sc2cc(=O)n(C)c3ccccc23)cc1 [compound 017]	1 to 10 µM	> 100 µM	1 to 10 µM	–
Cn1c(=O)cc(Sc2ccc(F)cc2)c2cc(F)ccc21 [compound 018]	1 to 10 µM	> 100 µM	1 to 10 µM	–
Cn1c(=O)cc(Sc2ccc(N)cc2)c2cccnc21 [compound 019]	< 1 µM	> 100 µM	1 to 10 µM	–
Cc1ccc(Sc2cc(=O)n(C)c3ncccc23)cc1 [compound 020]	< 1 µM	> 100 µM	1 to 10 µM	–

SMILES	IC50 [1]	IC50 at 48 h [2]	IC50 [3]	IC50 [4]
COCCOCC(=O)Nc1ccc(Sc2cc(=O)n(C)c3ccccc23)cc1 [compound 021]	< 1 µM	> 100 µM	1 to 10 µM	–
Cn1c(=O)cc(Sc2ccc(NC(=O)[C@H](Cc3ccccc3)NC(=O)OC(C)(C)C)cc2)c2ccccc21 [compound 022]	1 to 10 µM	> 100 µM	1 to 10 µM	–
C[C@H](OCc1ccccc1)[C@@H](NC(=O)OC(C)(C)C)C(=O)Nc1ccc(Sc2cc(=O)n(C)c3ccccc23)cc1 [compound 023]	1 to 10 µM	> 100 µM	1 to 10 µM	–
Cn1c(=O)cc(Sc2ccc(NC(=O)[C@@H](NC(=O)OC(C)(C)C)C3CCCCC3)cc2)c2ccccc21 [compound 024]	< 1 µM	> 100 µM	1 to 10 µM	–
Cn1c(=O)cc(Sc2ccc(NC(=O)[C@H](Cc3ccc(F)cc3)NC(=O)OC(C)(C)C)cc2)c2ccccc21 [compound 025]	1 to 10 µM	> 100 µM	1 to 10 µM	–
Cc1ccc2c(c1)c(Sc1ccc(F)cc1)cc(=O)n2C [compound 026]	< 1 µM	10 to 100 µM	< 1 µM	–
Cn1c(=O)cc(Sc2ccc(N)cc2)c2ccc(Cl)cc21 [compound 027]	< 1 µM	10 to 100 µM	< 1 µM	–
Cc1ccc2c(c1)c(Sc1ccc(Cl)cc1)cc(=O)n2C [compound 028]	< 1 µM	10 to 100 µM	< 1 µM	–
COc1ccc2c(c1)c(Sc1ccc(C)cc1)cc(=O)n2C [compound 029]	< 1 µM	> 100 µM	< 1 µM	–
COc1ccc2c(c1)c(Sc1ccc(N)cc1)cc(=O)n2C [compound 030]	< 1 µM	10 to 100 µM	< 1 µM	–
Cc1ccc2c(c1)c(Sc1ccc(Br)cc1)cc(=O)n2C [compound 031]	< 1 µM	10 to 100 µM	< 1 µM	–
Cc1ccc(Sc2cc(=O)n(C)c3ccc(C)cc23)cc1 [compound 032]	< 1 µM	10 to 100 µM	< 1 µM	–
Cc1ccc2c(c1)c(Sc1ccc(N)cc1)cc(=O)n2C [compound 033]	< 1 µM	> 100 µM	< 1 µM	–
Cc1ccc(Sc2cc(=O)n(C)c3cc(C)c(C)cc23)cc1 [compound 034]	< 1 µM	> 100 µM	< 1 µM	–
Cc1cc2c(Sc3ccc(N)cc3)cc(=O)n(C)c2cc1C [compound 035]	< 1 µM	> 100 µM	< 1 µM	–
Cc1ccc(NC(=S)Nc2ccc(Sc3cc(=O)n(C)c4ccc(C)cc34)cc2)cc1 [compound 036]	1 to 10 µM	> 100 µM	1 to 10 µM	–
Cc1cc2c(Sc3ccc(F)cc3)cc(=O)n(C)c2cc1C [compound 037]	< 1 µM	> 100 µM	< 1 µM	–
CCc1ccc2c(c1)c(Sc1ccc(N)cc1)cc(=O)n2C [compound 038]	< 1 µM	> 100 µM	< 1 µM	–
